Source: US7635686B2, “Therapeutically useful triethyleneglycol cholesteryl oligonucleotides” (Bioniche Life Sciences, Inc., priority 2001, dated 2009)
{TEG-Chol} = cholesteryl attached through a triethylene glycol (TEG) linker

Legend:
EL-4 cells = experiment: Apoptosis by phosphatidylserine redistribution (annexin V flow cytometry) in EL-4 cells; format: cell-based, murine; details: 24 hours; for Percentage of positive cells for phosphatidylserine (cells in apoptosis) in EL-4 cells: untreated cells 7%; for Induction of apoptosis in EL-4 cells (in words): translocation of phosphatidylserine, up to 53.0 μM
Experimental: Redistribution of plasma membrane phosphatidylserine is a characteristic of cells undergoing apoptosis (Martin et al., J. Exp. Med., 182:1545, 1995). The redistribution of phosphatidylserine in the plasma membrane during apoptosis was measured by flow cytometry using FITC (fluorescein isothiocyanate)-conjugated annexin V (BD Pharmingen, San Diego, Calif.). MEG-01 cells, a human chronic myelogeneous leukemia cell line positive for the Philadelphia chromosome and having a BCR-ABL gene fusion, were incubated at 2.5×10^5 cells/ml for 48 hours with 5.3, 26.5 and 53.0 μM final concentrations of SEQ ID NO:1, SEQ ID NO:2, SEQ ID NO:5, SEQ ID NO:6 and cholesteryl-TEG phosphoramidite molecule. The percentage of cells in apoptosis after exposure to the SEQ ID NOs:1, 2, 5, 6, or cholesteryl-TEG phosphoramidite treatment is reported in Table 2. The percentage of apoptosis in untreated MEG-01 cells was 12%.
EL-4 cells, a murine T lymphoma cell line, were incubated at 2.5×10^5 cells/ml for 24 hours with 0.53, 5.3 and 53.0 μM concentrations of SEQ ID NO:3, SEQ ID NO:7 or cholesteryl-TEG phosphoramidite. The percentage of cells in apoptosis after exposure to SEQ ID NO:3, SEQ ID NO:7 or cholesteryl-TEG phosphoramidite treatment is reported in Table 3. The percentage of apoptosis in untreated EL-4 cells was 7%.

Hs578T cells = experiment: Cell cycle progression in Hs578T multicellular spheroids (PI staining); format: cell-based, human; details: 53 μM, 72 hrs, FIG. 5
Experimental: Multicellular spheroids (MS) is an example of a special in vitro assay, in which tumor cells are cultured in a 3-dimensional manner to form a “tumor-like” structure. In this system, there is a reinforcement of cell-cell interactions that mimic microenvironmental conditions of malignant cells in solid tumors in vivo. In this type of assay, no extracellular matrix components are added. Cells cultured in this MS system differ from those in 2-dimensional systems (monolayer culture conditions). Some of these differences are related to structural and functional differentiation of tumor cells, changes in the cell cycle of tumor cells, “multicellular drug resistance”, and changes in the diffusion and penetration of drugs throughout layers of tumor cells (reviewed in Green et al., Anticancer Drug Des. 14:153, 1999).
About 100×10^3 Hs578T cells per spheroid were cultured in presence of 53 μM final concentration of SEQ ID NO:3, SEQ ID NO:7, 53 μM final concentration of cholesteryl-TEG phosphoramidite (cholTEG) or corresponding control media (regular culture medium (RCM), RCM with the same amount of water (RCMW) as the amount added with the SEQ ID NO:7, and RCM with the same amount of acetonitrile (RCMA) as the amount added with cholesteryl-TEG phosphoramidite). Five spheroids per each experimental condition were cultured for 72 hrs. Afterwards, cell cycle progression was evaluated by propidium iodide (PI) staining (Calbiochem, Novabiochem Corporation, San Diego, Calif.) using a FACScalibur flow cytometer (Becton Dickinson, Franklin Lakes, N.J.). Changes in the percentage of cells in the different phases of the cell cycle were analyzed using MODFIT LT software (Verity Software House Inc).

[1] = test system: EL-4 murine T lymphoma cells; experiment: EL-4 lymphoma implanted subcutaneously in C57/BL6 mice; format: in vivo; details: 1, 10, 100 mg/kg, after 4 weeks of treatment; versus saline and SEQ ID NO:3; dose-dependent
Experimental: EL-4 murine T lymphoma cells are implanted subcutaneously into C57/BL6 mice as previously described (Krawczyk et al., Cancer Immunol. Immunother. 40:347, 1995). The mice are divided into 7 groups of 10 mice. On day 0, group 1 mice receive saline, group 2 mice receive 1 mg/kg SEQ ID NO:3, group 3 mice receive 10 mg/kg SEQ ID NO:3, group 4 mice receive 100 mg/kg SEQ ID NO:3, group 5 mice receive 1 mg/kg SEQ ID NO:7, group 6 mice receive 10 mg/kg SEQ ID NO:7, group 7 mice receive 100 mg/kg SEQ ID NO:7. After 4 weeks of treatment, the mice are sacrificed and tumor mass is determined.

MDA-MB-231 cells [2] = experiment: MDA-MB-231 xenotransplanted tumors in nude mice (Example 22); format: in vivo; details: 0.5, 5, 50 mg/kg intravenously every 3 days, 6 doses maximum; versus saline and SEQ ID NO:3; dose-dependent
Experimental: MDA-MB-231 cells are xenotransplanted subcutaneously into nude mice. The mice are divided into 7 groups of 10 mice. After the tumors reach 5 mm in diameter, group 1 mice receive saline, group 2 mice receive 0.5 mg/kg SEQ ID NO:3, group 3 mice receive 5 mg/kg SEQ ID NO:3, group 4 mice receive 50 mg/kg SEQ ID NO:3, group 5 mice receive 0.5 mg/kg SEQ ID NO:7, group 6 mice receive 5 mg/kg SEQ ID NO:7, group 7 mice receive 50 mg/kg SEQ ID NO:7. Treatments are given intravenously every 3 days for 6 doses maximum. Mice are sacrificed when tumor reach 1 cm in diameter, at any sign of distress or at the end of the study (3 months from cell injection). Complete autopsies are performed. Tumor mass, presence of invasion and metastasis are determined.

MDA-MB-231 cells [3] = experiment: MDA-MB-231 xenotransplanted tumors in nude mice (Example 23); format: in vivo; details: 0.4, 4, 40 mg/kg intravenously every 3 days, 6 doses maximum; versus saline and SEQ ID NO:3; dose-dependent
Experimental: Breast cancer MDA-MB-231 cells are xenotransplanted subcutaneously in nude mice (1×10^7 cells). The mice are divided into 7 groups of 10 mice. After the tumors reach […] in diameter, group 1 mice receive saline, group 2 mice receive 0.4 mg/kg SEQ ID NO:3, group 3 mice receive 4 mg/kg SEQ ID NO:3, group 4 mice receive 40 mg/kg SEQ ID NO:3, group 5 mice receive 0.4 mg/kg SEQ ID NO:7, group 6 mice receive 4 mg/kg SEQ ID NO:7, group 7 mice receive 40 mg/kg SEQ ID NO:7. Treatments are given intravenously every 3 days for 6 doses maximum. Mice are sacrificed when tumor reach 1 cm in diameter, at any sign of distress or at the end of the study (3 months from cell injection). Complete autopsies are performed. Tumor mass, presence of invasion and metastasis are determined.

Substance	Percentage of positive cells for phosphatidylserine (cells in apoptosis) in EL-4 cells (EL-4 cells; 0.53 μM) [%]	Percentage of positive cells for phosphatidylserine (cells in apoptosis) in EL-4 cells (EL-4 cells; 5.3 μM) [%]	Percentage of positive cells for phosphatidylserine (cells in apoptosis) in EL-4 cells (EL-4 cells; 53.0 μM) [%]	Induction of apoptosis in EL-4 cells (in words) (EL-4 cells)	Cell cycle progression in multicellular spheroids (Hs578T cells)	Tumor mass [1]	Tumor mass (MDA-MB-231 cells [2])	Tumor mass and metastasis (MDA-MB-231 cells [3])
5′ OH-CCACCC(TEG-cholesteryl) 3′ (3' {TEG-Chol}, sugars by position and backbone not given here) [SEQ ID NO:7]	8	11	49	capacity to induce apoptosis	increased the percentage of cells in G2M and S-phase and decrease the percentage of cells in G0/G1	less tumor mass	less tumor mass	less tumor mass and metastasis
5′ OH-CCACCC-OH 3′ (listed as DNA, chemistry not fully specified) [SEQ ID NO:3]	7	7	7	neither SEQ ID NO:3 nor cholesteryl-TEG phosphoramidite caused apoptosis	did not significantly modify cell cycle progression	–	–	–
